In patent US20240158446A1, “CYCLIC COMPOUND HAVING SELECTIVE INHIBITORY ACTION ON KRAS OVER HRAS AND NRAS” (CHUGAI SEIYAKU KABUSHIKI KAISHA, priority 2021, published 2024):
Where a SMILES comes first, the peptide text is derived from it. Bridges are numbered along the chain shown (N, C = ends). [ ]: non-standard residue; d: D form. The star is where a group is joined. hPhe(3-Cl-4-CF3) = N[C@@H](CCc1ccc(C(F)(F)F)c(Cl)c1)C(=O)O; NPrPhe(4-CF3) = CCCN[C@@H](Cc1ccc(C(F)(F)F)cc1)C(=O)O; Piperazinyl(4-(3-oxetanyl)) = C1OCC1N1CCN(*)CC1; NMeAbu(4,4,4-F3) = CN[C@@H](CC(F)(F)F)C(=O)O; NMeGly(cPent) = CN[C@H](C(=O)O)C1CCCC1; NMeGly(cBu) = CN[C@H](C(=O)O)C1CCC1; Piperidide(4-Me) = CC1CCN(*)CC1; NMeD = CN[C@@H](CC(=O)O)C(=O)O; NMeL = CN[C@@H](CC(C)C)C(=O)O; Oxazolidin(3-yl) = C1CN(*)CO1; Azetidin(1-yl) = C1CN(*)C1; Morpholide = C1CN(*)CCO1; NMeA = CN[C@@H](C)C(=O)O; Piperidide = C1CCN(*)CC1; Pyrrolidide = C1CCN(*)C1; Ac5c = NC1(C(=O)O)CCCC1; Aze = O=C(O)[C@@H]1CCN1; X24 = CC1(C)CCN(*)C1; Sar = CNCC(=O)O

How the values were obtained:
[1] = target: GDP-bound KRAS wild-type protein (Homo sapiens, UniProt P01116); assay: Binding to KRAS by surface plasmon resonance (SPR), Single Cycle Kinetics; settings: SPR Single Cycle Kinetics, GDP-bound KRAS wild-type protein, 1:1 binding model; read-out: KRAS KD
Sequence of GDP-bound KRAS wild-type protein (P01116 whole entry): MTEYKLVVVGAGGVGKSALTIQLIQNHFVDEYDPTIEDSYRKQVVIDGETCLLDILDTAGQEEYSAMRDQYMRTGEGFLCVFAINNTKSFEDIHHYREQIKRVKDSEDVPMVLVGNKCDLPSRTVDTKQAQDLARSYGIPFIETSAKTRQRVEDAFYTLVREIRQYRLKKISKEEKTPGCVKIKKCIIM

[2] = target: GDP-bound NRAS wild-type protein (Homo sapiens, UniProt P01111); assay: Binding to NRAS by surface plasmon resonance (SPR), Single Cycle Kinetics; settings: SPR, GDP-bound NRAS wild-type protein vs GDP-bound KRAS wild-type protein
Sequence of GDP-bound NRAS wild-type protein (P01111 whole entry): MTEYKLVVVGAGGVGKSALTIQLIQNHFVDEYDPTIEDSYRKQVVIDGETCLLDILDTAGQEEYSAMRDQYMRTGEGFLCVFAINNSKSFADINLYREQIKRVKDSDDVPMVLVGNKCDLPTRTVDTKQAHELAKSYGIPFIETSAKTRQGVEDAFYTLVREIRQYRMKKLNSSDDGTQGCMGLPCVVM

[3] = target: GDP-bound HRAS wild-type protein (Homo sapiens, UniProt P01112); assay: Binding to HRAS by surface plasmon resonance (SPR), Single Cycle Kinetics; settings: SPR, GDP-bound HRAS wild-type protein vs GDP-bound KRAS wild-type protein
Sequence of GDP-bound HRAS wild-type protein (P01112 whole entry): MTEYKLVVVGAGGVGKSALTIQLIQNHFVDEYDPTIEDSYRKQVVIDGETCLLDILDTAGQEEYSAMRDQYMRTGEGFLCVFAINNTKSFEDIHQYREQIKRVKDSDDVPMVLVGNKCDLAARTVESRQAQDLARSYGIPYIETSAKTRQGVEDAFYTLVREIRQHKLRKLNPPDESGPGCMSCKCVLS

Structure (SMILES)	Kd [1] [pM]	NRAS/KRAS (ratio of KD value for NRAS to KD value for KRAS) [2]	HRAS/KRAS (ratio of KD value for HRAS to KD value for KRAS) [3]
CCCN1C(=O)CN(C)C(=O)CN(C)C(=O)[C@H]([C@@H](C)CC)NC(=O)[C@H](CC(C)C)N(C)C(=O)C[C@@H](C(=O)N2CCC(C)CC2)N(C)C(=O)[C@H](C2CCCC2)N(C)C(=O)C2(CCCC2)NC(=O)[C@@H]2CCCN2C(=O)[C@H](CCc2ccc(C(F)(F)F)c(Cl)c2)NC(=O)CN(C)C(=O)[C@@H]1Cc1ccc(C(F)(F)F)cc1 [PP0176] ([NMeL]I[Sar][Sar][NPrPhe(4-CF3)][Sar][hPhe(3-Cl-4-CF3)]P[Ac5c][NMeGly(cPent)][NMeD]-{Piperidide(4-Me)}; lactam N-11)	550	B (a compound having 3 or more and less than 10 is denoted as B)	C (A compound having a KD ratio of 0.1 or more and less than 3 is denoted as C)
CCCN1C(=O)CN(C)C(=O)CN(C)C(=O)[C@H]([C@@H](C)CC)NC(=O)[C@H](CC(C)C)N(C)C(=O)C[C@@H](C(=O)N2CCC(C)(C)C2)N(C)C(=O)[C@H](C2CCCC2)N(C)C(=O)C2(CCCC2)NC(=O)[C@@H]2CCCN2C(=O)[C@H](CCc2ccc(C(F)(F)F)c(Cl)c2)NC(=O)CN(C)C(=O)[C@@H]1Cc1ccc(C(F)(F)F)cc1 [PP0177] ([NMeL]I[Sar][Sar][NPrPhe(4-CF3)][Sar][hPhe(3-Cl-4-CF3)]P[Ac5c][NMeGly(cPent)][NMeD]-X24; lactam N-11)	550	B (a compound having 3 or more and less than 10 is denoted as B)	C (A compound having a KD ratio of 0.1 or more and less than 3 is denoted as C)
CCCN1C(=O)[C@@H]2CCN2C(=O)[C@H](C)N(C)C(=O)[C@H]([C@@H](C)CC)NC(=O)[C@H](CC(C)C)N(C)C(=O)C[C@@H](C(=O)N(C)C)N(C)C(=O)[C@H](C2CCCC2)N(C)C(=O)C2(CCCC2)NC(=O)[C@@H]2CCCN2C(=O)[C@H](CCc2ccc(C(F)(F)F)c(Cl)c2)NC(=O)CN(C)C(=O)[C@@H]1Cc1ccc(C(F)(F)F)cc1 [PP0178] ([NMeL]I[NMeA][Aze][NPrPhe(4-CF3)][Sar][hPhe(3-Cl-4-CF3)]P[Ac5c][NMeGly(cPent)][NMeD]-NMe2; lactam N-11)	73	C (A compound having a KD ratio of 0.1 or more and less than 3 is denoted as C)	B (a compound having 3 or more and less than 10 is denoted as B)
CCCN1C(=O)[C@@H]2CCN2C(=O)[C@H](C)N(C)C(=O)[C@H]([C@@H](C)CC)NC(=O)[C@H](CC(C)C)N(C)C(=O)C[C@@H](C(=O)N2CCCCC2)N(C)C(=O)[C@H](C2CCCC2)N(C)C(=O)C2(CCCC2)NC(=O)[C@@H]2CCCN2C(=O)[C@H](CCc2ccc(C(F)(F)F)c(Cl)c2)NC(=O)CN(C)C(=O)[C@@H]1Cc1ccc(C(F)(F)F)cc1 [PP0180] ([NMeL]I[NMeA][Aze][NPrPhe(4-CF3)][Sar][hPhe(3-Cl-4-CF3)]P[Ac5c][NMeGly(cPent)][NMeD]-Piperidide; lactam N-11)	720	C (A compound having a KD ratio of 0.1 or more and less than 3 is denoted as C)	C (A compound having a KD ratio of 0.1 or more and less than 3 is denoted as C)
CCCN1C(=O)CN(C)C(=O)CN(C)C(=O)[C@H]([C@@H](C)CC)NC(=O)[C@H](CC(F)(F)F)N(C)C(=O)C[C@@H](C(=O)N2CCOCC2)N(C)C(=O)[C@H](C2CCCC2)N(C)C(=O)C2(CCCC2)NC(=O)[C@@H]2CCCN2C(=O)[C@H](CCc2ccc(C(F)(F)F)c(Cl)c2)NC(=O)CN(C)C(=O)[C@@H]1Cc1ccc(C(F)(F)F)cc1 [PP0187] ([NMeAbu(4,4,4-F3)]I[Sar][Sar][NPrPhe(4-CF3)][Sar][hPhe(3-Cl-4-CF3)]P[Ac5c][NMeGly(cPent)][NMeD]-Morpholide; lactam N-11)	190	B (a compound having 3 or more and less than 10 is denoted as B)	C (A compound having a KD ratio of 0.1 or more and less than 3 is denoted as C)
CCCN1C(=O)CN(C)C(=O)CN(C)C(=O)[C@H]([C@@H](C)CC)NC(=O)[C@H](C2CCC2)N(C)C(=O)C[C@@H](C(=O)N2CCOCC2)N(C)C(=O)[C@H](C2CCCC2)N(C)C(=O)C2(CCCC2)NC(=O)[C@@H]2CCCN2C(=O)[C@H](CCc2ccc(C(F)(F)F)c(Cl)c2)NC(=O)CN(C)C(=O)[C@@H]1Cc1ccc(C(F)(F)F)cc1 [PP0188] ([NMeGly(cBu)]I[Sar][Sar][NPrPhe(4-CF3)][Sar][hPhe(3-Cl-4-CF3)]P[Ac5c][NMeGly(cPent)][NMeD]-Morpholide; lactam N-11)	250	B (a compound having 3 or more and less than 10 is denoted as B)	C (A compound having a KD ratio of 0.1 or more and less than 3 is denoted as C)

Now from value to compound, other results behind:

Kd [1] [pM]	Structure (SMILES)	NRAS/KRAS (ratio of KD value for NRAS to KD value for KRAS) [2]	HRAS/KRAS (ratio of KD value for HRAS to KD value for KRAS) [3]
110	CCCN1C(=O)[C@@H]2CCN2C(=O)[C@H](C)N(C)C(=O)[C@H]([C@@H](C)CC)NC(=O)[C@H](CC(C)C)N(C)C(=O)C[C@@H](C(=O)N2CCCC2)N(C)C(=O)[C@H](C2CCCC2)N(C)C(=O)C2(CCCC2)NC(=O)[C@@H]2CCCN2C(=O)[C@H](CCc2ccc(C(F)(F)F)c(Cl)c2)NC(=O)CN(C)C(=O)[C@@H]1Cc1ccc(C(F)(F)F)cc1 [PP0179] ([NMeL]I[NMeA][Aze][NPrPhe(4-CF3)][Sar][hPhe(3-Cl-4-CF3)]P[Ac5c][NMeGly(cPent)][NMeD]-Pyrrolidide; lactam N-11)	C (A compound having a KD ratio of 0.1 or more and less than 3 is denoted as C)	B (a compound having 3 or more and less than 10 is denoted as B)
81	CCCN1C(=O)[C@@H]2CCN2C(=O)[C@H](C)N(C)C(=O)[C@H]([C@@H](C)CC)NC(=O)[C@H](CC(C)C)N(C)C(=O)C[C@@H](C(=O)N2CCC2)N(C)C(=O)[C@H](C2CCCC2)N(C)C(=O)C2(CCCC2)NC(=O)[C@@H]2CCCN2C(=O)[C@H](CCc2ccc(C(F)(F)F)c(Cl)c2)NC(=O)CN(C)C(=O)[C@@H]1Cc1ccc(C(F)(F)F)cc1 [PP0181] ([NMeL]I[NMeA][Aze][NPrPhe(4-CF3)][Sar][hPhe(3-Cl-4-CF3)]P[Ac5c][NMeGly(cPent)][NMeD]-{Azetidin(1-yl)}; lactam N-11)	C (A compound having a KD ratio of 0.1 or more and less than 3 is denoted as C)	B (a compound having 3 or more and less than 10 is denoted as B)
170	CCCN1C(=O)[C@@H]2CCN2C(=O)[C@H](C)N(C)C(=O)[C@H]([C@@H](C)CC)NC(=O)[C@H](CC(C)C)N(C)C(=O)C[C@@H](C(=O)N2CCOC2)N(C)C(=O)[C@H](C2CCCC2)N(C)C(=O)C2(CCCC2)NC(=O)[C@@H]2CCCN2C(=O)[C@H](CCc2ccc(C(F)(F)F)c(Cl)c2)NC(=O)CN(C)C(=O)[C@@H]1Cc1ccc(C(F)(F)F)cc1 [PP0183] ([NMeL]I[NMeA][Aze][NPrPhe(4-CF3)][Sar][hPhe(3-Cl-4-CF3)]P[Ac5c][NMeGly(cPent)][NMeD]-{Oxazolidin(3-yl)}; lactam N-11)	C (A compound having a KD ratio of 0.1 or more and less than 3 is denoted as C)	B (a compound having 3 or more and less than 10 is denoted as B)
320	CCCN1C(=O)[C@@H]2CCN2C(=O)[C@H](C)N(C)C(=O)[C@H]([C@@H](C)CC)NC(=O)[C@H](CC(C)C)N(C)C(=O)C[C@@H](C(=O)N2CCN(C3COC3)CC2)N(C)C(=O)[C@H](C2CCCC2)N(C)C(=O)C2(CCCC2)NC(=O)[C@@H]2CCCN2C(=O)[C@H](CCc2ccc(C(F)(F)F)c(Cl)c2)NC(=O)CN(C)C(=O)[C@@H]1Cc1ccc(C(F)(F)F)cc1 [PP0184] ([NMeL]I[NMeA][Aze][NPrPhe(4-CF3)][Sar][hPhe(3-Cl-4-CF3)]P[Ac5c][NMeGly(cPent)][NMeD]-{Piperazinyl(4-(3-oxetanyl))}; lactam N-11)	C (A compound having a KD ratio of 0.1 or more and less than 3 is denoted as C)	B (a compound having 3 or more and less than 10 is denoted as B)
1100	CCCN1C(=O)[C@@H]2CCN2C(=O)[C@H](C)N(C)C(=O)[C@H]([C@@H](C)CC)NC(=O)[C@H](CC(C)C)N(C)C(=O)C[C@@H](C(=O)N2CCC(C)CC2)N(C)C(=O)[C@H](C2CCCC2)N(C)C(=O)C2(CCCC2)NC(=O)[C@@H]2CCCN2C(=O)[C@H](CCc2ccc(C(F)(F)F)c(Cl)c2)NC(=O)CN(C)C(=O)[C@@H]1Cc1ccc(C(F)(F)F)cc1 [PP0185] ([NMeL]I[NMeA][Aze][NPrPhe(4-CF3)][Sar][hPhe(3-Cl-4-CF3)]P[Ac5c][NMeGly(cPent)][NMeD]-{Piperidide(4-Me)}; lactam N-11)	C (A compound having a KD ratio of 0.1 or more and less than 3 is denoted as C)	B (a compound having 3 or more and less than 10 is denoted as B)
1700	CCCN1C(=O)[C@@H]2CCN2C(=O)[C@H](C)N(C)C(=O)[C@H]([C@@H](C)CC)NC(=O)[C@H](CC(C)C)N(C)C(=O)C[C@@H](C(=O)N2CCC(C)(C)C2)N(C)C(=O)[C@H](C2CCCC2)N(C)C(=O)C2(CCCC2)NC(=O)[C@@H]2CCCN2C(=O)[C@H](CCc2ccc(C(F)(F)F)c(Cl)c2)NC(=O)CN(C)C(=O)[C@@H]1Cc1ccc(C(F)(F)F)cc1 [PP0186] ([NMeL]I[NMeA][Aze][NPrPhe(4-CF3)][Sar][hPhe(3-Cl-4-CF3)]P[Ac5c][NMeGly(cPent)][NMeD]-X24; lactam N-11)	C (A compound having a KD ratio of 0.1 or more and less than 3 is denoted as C)	B (a compound having 3 or more and less than 10 is denoted as B)
